The record followed here is patent publication US6967196B1, “Sulfonamide compounds and uses thereof” (Bristol-Myers Squibb Company, priority 1999, dated 2005).

Structures can show the parent of a compound that is named as a salt.

The first experiment has as its system amyloid β production in transfected H4 (human neuroglioma) cells stably expressing APP constructs. As to the kind of experiment: In vitro cell-based assay of inhibitors of amyloid β production (ELISA). The note with it: Homo sapiens, 16 h, transfected H4 cells expressing APP, approximately 16 hours incubation, amyloid β in medium by ELISA; read-out: ACTIVITY (IC50, inhibition of amyloid β production). The gist of the method: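 H4 neuroglioma cells stably expressing APP constructs were dosed in fresh medium, screened initially at 10-100 μM, and incubated ~16 h. Medium Aβ was measured by ELISA with C-terminal-epitope capture and N-terminal detection antibodies, quantified from a standard curve, with dose-response testing of actives.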
For orientation: An ELISA detects its analyte on a solid surface through an enzyme-linked reagent.
A word on the IC50: it is the point on the concentration scale where inhibition reaches its midpoint. With `C[C@H](C(=O)NCc1ccc(C2=CSNN2)cc1)N(c1cc(Cl)ccc1F)S(=O)(=O)c1ccc(Cl)cc1` [Example 1366], the IC50 is above 500 nM. Same read-out and setting: next, `CCN(CCNC(=O)[C@@H](C)N(c1cc(Cl)ccc1F)S(=O)(=O)c1ccc(Cl)cc1)c1cccc(C)c1` [Example 1315]: above 500 nM; `C[C@H](C(=O)NCC1CCCO1)N(c1cc(Cl)ccc1F)S(=O)(=O)c1ccc(Cl)cc1` (some centres unmarked) [Example 1321]: 100 to 500 nM; `C[C@H](C(=O)NCCc1cccs1)N(c1cc(Cl)ccc1F)S(=O)(=O)c1ccc(Cl)cc1` [Example 1317]: above 500 nM. Consider `C[C@H](C(=O)NCc1ccc(F)c(F)c1)N(c1cc(Cl)ccc1F)S(=O)(=O)c1ccc(Cl)cc1` [Example 1334], for which the IC50 is above 500 nM.

`CCN(CC)CCCC(C)NC(=O)[C@@H](C)N(c1cc(Cl)ccc1F)S(=O)(=O)c1ccc(Cl)cc1` (some centres unmarked) [Example 1312]: the IC50 was above 500 nM. Still for that read-out and setting: next, `COc1ccc(CCNC(=O)[C@@H](C)N(c2cc(Cl)ccc2F)S(=O)(=O)c2ccc(Cl)cc2)cc1` [Example 1353]: above 500 nM.

The experiment is the same for the next values; noted with them: Homo sapiens, 16 h, transfected H4 cells stably expressing APP constructs; approximately 16 hours incubation; amyloid β in medium by ELISA; read-out: ACTIVITY (IC50, inhibition of amyloid β production).
For `C[C@H](CCCN(c1cc(Cl)ccc1Cl)S(=O)(=O)c1ccc(Cl)cc1)N(c1cc(Cl)ccc1Cl)S(=O)(=O)c1ccc(Cl)cc1` [Example 1158, 4-chloro-N-(2,5-dichlorophenyl)-N-[4-[N-(2,5-dichlorophenyl)-N-[(4-chlorophenyl)sulfonyl]amino]-1(R)-methylbutyl]benzenesulfonamide], the IC50 was above 500 nM.

Take `CC(C)N(C)S(=O)(=O)CCC[C@@H](C)N(c1cc(Cl)ccc1Cl)S(=O)(=O)c1ccc(Cl)cc1` [Example 1212, 4-chloro-N-[2,5-dichlorophenyl]-N-[4-[[N-(1-methylethyl)methylamino]sulfonyl]-1(R)-methylbutyl]benzenesulfonamide]: the IC50 is at most 25 nM.

Still in this experiment, the particulars now being: Homo sapiens, 16 h, transfected H4 cells stably expressing APP; approx. 16 h incubation; amyloid β in medium by ELISA; read-out: ACTIVITY (IC50, inhibition of amyloid β production).
As to `CC(c1ccccc1OCCCN(C)S(=O)(=O)c1ccc(Cl)cc1)N(c1cc(F)ccc1F)S(=O)(=O)c1ccc(Cl)cc1` (centres unmarked) [Example 794, 4-chloro-N-[1-(2-{3-[[(4-chlorophenyl)sulfonyl](methyl)amino]propoxy}phenyl)ethyl]-N-(2,5-difluorophenyl)benzenesulfonamide], the IC50 was 100 to 500 nM.

Still in this experiment, the particulars now being: Homo sapiens, 16 h, transfected H4 cells stably expressing APP; approximately 16 hours incubation; amyloid β in medium by ELISA; read-out: ACTIVITY (IC50, inhibition of amyloid β production).
Consider `CC(COc1ccccc1C(C)N(c1cc(F)ccc1F)S(=O)(=O)c1ccc(Cl)cc1)N(C)S(=O)(=O)c1ccc(Cl)cc1` (centres unmarked) [Example 885, 4-chloro-N-[1-(2-{2-[[(4-chlorophenyl)sulfonyl](methyl)amino]propoxy}phenyl)ethyl]-N-(2,5-difluorophenyl)benzenesulfonamide], for which the IC50 is above 500 nM.

In the case of `O=S(=O)(c1ccc(Cl)cc1)N(Cc1cccnc1)Cc1ccccc1OCCCN1CCCCC1` [Example 945, 4-chloro-N-{2-[3-(1-piperidinyl)propoxy]benzyl}-N-(3-pyridinylmethyl)benzenesulfonamide hydrochloride], the IC50 is above 500 nM. Consider `COc1ccc(S(=O)(=O)CCCOc2ccccc2CN(Nc2cc(F)ccc2F)S(=O)(=O)c2ccc(Cl)cc2)cc1` [Example 871, 4-chloro-N-(2,5-difluoroanilino)-N-(2-{3-[(4-methoxyphenyl)sulfonyl]propoxy}benzyl)benzenesulfonamide], for which the IC50 was 100 to 500 nM. Turning to `O=S(=O)(c1ccc(Cl)cc1)N(Cc1ccccc1OCCCN1CCCCC1)C1CCCCC1` [Example 852, 4-chloro-N-cyclohexyl-N-{2-[3-(1-piperidinyl)propoxy]benzyl}benzenesulfonamide hydrochloride], the half-inhibitory concentration (IC50) was 100 to 500 nM. As to `O=S(=O)(c1ccc(Cl)cc1)N(Cc1ccccc1OCCCN1CCCCC1)CC1CCCC1` [Example 848, 4-chloro-N-(cyclopentylmethyl)-N-{2-[3-(1-piperidinyl)propoxy]benzyl}benzenesulfonamide hydrochloride], the IC50 was in the range of 100 to 500 nM.

As for `O=C1CCN(CCCOc2ccccc2CN(c2ccccc2)S(=O)(=O)c2ccc(Cl)cc2)CC1` [Example 968, 4-chloro-N-{2-[3-(4-oxo-1-piperidinyl)propoxy]benzyl}-N-phenylbenzenesulfonamide hydrochloride], the IC50 was above 500 nM.

With `C[C@H](c1ccccc1Br)N(c1cc(F)ccc1F)S(=O)(=O)c1ccc(Cl)cc1` [Example 855, N-[(1R)-1-(2-bromophenyl)ethyl]-4-chloro-N-(2,5-difluorophenyl)benzenesulfonamide], the IC50 is 100 to 500 nM.

The experiment is the same for the next values; noted with them: transfected H4 cells stably expressing APP constructs; approximately 16 hours incubation; amyloid β in medium by ELISA; read-out: ACTIVITY (IC50, inhibition of amyloid β production).
For the compound `CSC1CCN(CCC[C@@H](C)N(c2cc(Cl)ccc2Cl)S(=O)(=O)c2ccc(Cl)cc2)C1` (stereo partly drawn) [Example 1144, 4-chloro-N-(2,5-dichlorophenyl)-N-[4-[(4-methylthio)-1-pyrrolidinyl]-1(R)-methylbutyl]benzenesulfonamide], the IC50 was in the range of 100 to 500 nM. Turning to `C[C@H](CCN1CCC(S(C)(=O)=O)CC1)N(c1cc(Cl)ccc1Cl)S(=O)(=O)c1ccc(Cl)cc1` [Example 1146, 4-chloro-N-(2,5-dichlorophenyl)-N-[3-[(4-methylsulfonyl)-1-piperidinyl]-1(R)-methylpropyl]benzenesulfonamide], the IC50 lay in the range of 100 to 500 nM. In the case of `C[C@H](CCN1CCCC(S(C)(=O)=O)C1)N(c1cc(Cl)ccc1Cl)S(=O)(=O)c1ccc(Cl)cc1` (stereo partly drawn) [Example 1132, 4-chloro-N-(2,5-dichlorophenyl)-N-[3-[(3-methylsulfonyl)-1-piperidinyl]-1(R)-methylpropyl]benzenesulfonamide], the IC50 lay within 50 to 100 nM. Regarding `CC[S+]([O-])CCCC[C@@H](C)N(c1cc(Cl)ccc1Cl)S(=O)(=O)c1ccc(Cl)cc1` (stereo partly drawn) [Example 1173, 4-chloro-N-[2,5-dichlorophenyl]-N-[1(R)-methyl-(5-ethylsulfinyl)pentyl]benzenesulfonamide], the IC50 was at most 25 nM. As for `CC(C)[C@@H](NC(=O)CCC[C@@H](C)N(c1cc(Cl)ccc1F)S(=O)(=O)c1ccc(Cl)cc1)C(=O)O` [Example 1270, (R)-4-Chloro-N-(5-chloro-2-fluorophenyl)-N-[5-[N-(R)-[1-(carboxy)-2-methylpropyl]amino]-1-methyl-5-oxopentyl]benzenesulfonamide], the IC50 is 25 to 50 nM.

The same experiment, now with this note: transfected H4 cells stably expressing APP; approx. 16 h incubation; amyloid β in medium by ELISA; read-out: ACTIVITY (IC50, inhibition of amyloid β production).
For the compound “2-((1R)-1-{[(4-chlorophenyl)sulfonyl]-2,5-difluoroanilino}ethyl)-5-fluorobenzyl 2-methoxyethylcarbamate [Example 729]”, the IC50 lay within 100 to 500 nM. Same read-out and setting: next, “(2Z)-N-{3-[2-(1-{[(4-chlorophenyl)sulfonyl]-2,5-difluoroanilino}ethyl)phenoxy]propyl}-3-phenyl-2-propenamide [Example 732]”: 100 to 500 nM; “N-{4-[2-(1-{[(4-chlorophenyl)sulfonyl]-2,5-difluoroanilino}ethyl)phenoxy]butyl}-N-ethylbenzamide [Example 767]”: 100 to 500 nM; “2,4,6-trichloro-N-{3-[2-(1-{[(4-chlorophenyl)sulfonyl]-2,5-difluoroanilino}ethyl)phenoxy]propyl}benzamide [Example 728]”: 100 to 500 nM. Turning to “(2E)-1-N-{3-[2-({[(4-chlorophenyl)sulfonyl]-2,5-difluoroanilino}methyl)phenoxy]propyl}-N-methyl-2-butenamide [Example 783]”, the IC50 was in the range of 100 to 500 nM.

Still in this experiment, the particulars now being: transfected H4 cells stably expressing APP; approximately 16 hours incubation; amyloid β in medium by ELISA; Table B; read-out: ACTIVITY (IC50, inhibition of amyloid β production).
For `O=S(=O)(c1ccc(Cl)cc1)N(Cc1ccccc1OCCC[N+]1([O-])CCCCC1)c1cc(Cl)ccc1Cl` [Example 506], the IC50 was 100 to 500 nM. Turning to `C[N+]1(CCCOc2ccccc2CN(c2cc(Cl)ccc2Cl)S(=O)(=O)c2ccc(Cl)cc2)CCCCC1` [Example 513, 1-{3-[2-({2,5-dichloro[(4-chlorophenyl)sulfonyl]anilino}methyl)phenoxy]propyl}-1-methylpiperidinium Iodide], the IC50 is 100 to 500 nM.

The same experiment, now with this note: transfected H4 cells stably expressing APP; approximately 16 hours incubation; amyloid β in medium by ELISA; read-out: ACTIVITY (IC50, inhibition of amyloid β production).
As to “N-{3-[2-({[(4-chlorophenyl)sulfonyl]-2,5-difluoroanilino}methyl)phenoxy]propyl}-N-methyl-3-(trifluoromethyl)benzamide [Example 891]”, the concentration for half-maximal inhibition (IC50) was above 500 nM. With “methyl [{2-[2-(1-{[(4-chlorophenyl)sulfonyl]-2,5-difluoroanilino}ethyl)phenoxy]ethyl}(methyl)amino](oxo)acetate [Example 929]”, the IC50 is above 500 nM. Regarding `O=S(=O)(c1ccc(Cl)cc1)N(Cc1ccccc1OCCCN1CCCCC1)CC1CC1` [Example 984, 4-chloro-N-(cyclopropylmethyl-N-{2-[3-(1-piperidinyl)propoxy]benzyl}benzenesulfonamide hydrochloride], the IC50 is above 500 nM. As for “N-{3-[2-({[(4-chlorophenyl)sulfonyl]-2,5-difluoroanilino}methyl)phenoxy]propyl}-4-ethoxy-N-methylbenzamide [Example 1010]”, the IC50 was above 500 nM. Take `O=S(=O)(c1ccc(Cl)cc1)N(Cc1ccccc1CCCCN1CCCCC1)c1ccccc1` [Example 981, 4-chloro-N-phenyl-N-{2-[4-(1-piperdinyl)butyl]benzyl}benzenesulfonamide hydrochloride]: the IC50 is above 500 nM. Take “4-chloro-N-(2,5-difluorophenyl)-N-{2-[3-(1-piperidinyl)propyl]benzyl}-N-phenylbenzenesulfonamide [Example 1044]”: the IC50 was above 500 nM.
